Data taken from patent US20240109881A1, “Heteroaryl Compounds as Ligand Directed Degraders of IRAK4” (Bristol-Myers Squibb Company, priority 2022, published 2024).

Target: T1, IRAK4 (Homo sapiens, UniProt Q9NWZ3)
T1 construct: endogenous in cells; host or cells: THP-1 cells
T1 sequence (Q9NWZ3 1-460): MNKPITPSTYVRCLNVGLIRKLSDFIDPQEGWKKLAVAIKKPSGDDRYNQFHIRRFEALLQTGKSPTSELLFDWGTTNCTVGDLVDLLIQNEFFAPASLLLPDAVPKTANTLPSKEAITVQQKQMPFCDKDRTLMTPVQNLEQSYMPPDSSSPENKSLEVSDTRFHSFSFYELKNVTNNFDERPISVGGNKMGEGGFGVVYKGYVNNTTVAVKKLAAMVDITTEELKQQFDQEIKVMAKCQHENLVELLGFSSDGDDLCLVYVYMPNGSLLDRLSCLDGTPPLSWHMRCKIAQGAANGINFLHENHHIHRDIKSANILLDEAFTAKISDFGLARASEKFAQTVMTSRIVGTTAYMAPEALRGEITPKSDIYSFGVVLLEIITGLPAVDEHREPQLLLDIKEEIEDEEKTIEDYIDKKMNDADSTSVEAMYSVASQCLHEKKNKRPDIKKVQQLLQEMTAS
Assay: ALE THP1 HTRF (Advanced Lipoxidation End Product THP1 Homogeneous Time Resolved Fluorescence)
Assay type: cell-based
Conditions: THP1 cells
Procedure: For Homogenous Time Resolved Fluorescence (HTRF) assays, a Cisbio HTRF kit was used, which included: Lysis Buffer #1 4×, Blocking Reagent #3 100×, 20× Antibody 1 (Anti-IRAK4 d2), 20× Antibody 2 (Anti-IRAK4 k), and Detection Buffer.
4× Lysis Buffer was stored at 4° C. For use as 1× Lysis buffer, the 4× solution was diluted with de-ionized water (distilled water, Gibco Cat. #15230279) and 100× Blocking Reagent in a 1:3:0.04 volume ratio.
20× Antibody Solution aliquots were stored in −80° C. and the Detection Buffer was stored in 4° C. For use as a 1× Antibody Solution, the 20× Antibody Solution aliquot was diluted with Detection Buffer in a 1:19 volume ratio.
Cells were lysed at room temperature for 45 min with shaking. A BCA protein assay was performed and normalization was conducted to the desired total protein concentration with 1× lysis buffer. Next, 1× Antibody Solutions were prepared by adding 380 μL Detection Buffer to 20 μL 20× Antibody Solution aliquots and mixing well. 1× Antibody Solutions were combined 1:1 and briefly vortexed. For control wells, 20 μL 1× anti IRAK4-k Antibody Solution was saved. The 384-well plate (ProxiPlate-384 Plus, Perkin Elmer Cat. #6008289) was loaded by adding 4 μL of the mixed Antibody Solution to empty wells using a single channel repeater. Using a multi-channel repeater, 16 μL lysate was added per well, and any bubbles that were formed were popped with 20 μL pipette tips and Kimwipe edges. In column 10, triplicates of each control was prepared. In wells A10, B10, and C10, buffer control was prepared by adding 16 μL Lysis Buffer and 4 μL Detection Buffer. In wells D10, E10, and F10, cryptate control was prepared by adding 16 μL Lysis Buffer, 2 μL Detection Buffer, and 2 μL 1× anti IRAK4-k Antibody Solution. In wells G10, H10, and I10, a negative control was prepared by adding 16 μL Lysis Buffer and 4 μL mixed Antibody Solution. The plate was sealed with a clear seal and covered with an aluminum lid. The plate was spun down at 800 g for 5 min and incubated in the dark at room temperature overnight. The next day, the plate was spun down at 800 g for 5 min. The samples were analyzed by a plate reader (Envision, PerkinElmer) using the Desnor 384 HTRF program.

| ALE THP1 HTRF YMIN | EC50 | SMILES |
| --- | --- | --- |
| 24.0% | 0.095 µM | N#Cc1cnc2c(cnn2-c2cc(NC3CCCC3)c(C(=O)NC3CCC(C(=O)N4CCC(c5ccc6c(c5)C(=O)N(C5CCC(=O)NC5=O)C6)CC4)CC3)cn2)c1 (stereo not drawn) [P-14] |
| 31.8% | 0.026 µM | CC(C)Nc1cc(-n2ncc3cc(C#N)cnc32)ncc1C(=O)N[C@H]1CC[C@H](CN2CCN(c3ccc4c(c3)C(=O)N(C3CCC(=O)NC3=O)C4)CC2)CC1 (stereo partly drawn) [P-15] |
| 26.9% | 0.016 µM | N#Cc1cnc2c(cnn2-c2cc(NC3CCCC3)c(-c3cn([C@H]4CC[C@H](NC(=O)C5CCN(c6ccc7c(c6)C(=O)N(C6CCC(=O)NC6=O)C7)CC5)CC4)nn3)cn2)c1 (stereo partly drawn) [P-16, N-((1r,4r)-4-(4-(6-(5-cyano-1H-pyrazolo[3,4-b]pyridin-1-yl)-4-(cyclopentylamino)pyridin-3-yl)-1H-1,2,3-triazol-1-yl)cyclohexyl)-1-(2-(2,6-dioxopiperidin-3-yl)-3-oxoisoindolin-5-yl)piperidine-4-carboxamide] |
| 24.6% | 0.013 µM | N#Cc1cnc2c(cnn2-c2cc(NC3CCCC3)c(C(=O)N[C@H]3CC[C@H](CN4CCN(c5ccc6c(c5)C(=O)N(C5CCC(=O)NC5=O)C6)CC4)CC3)cn2)c1 (stereo partly drawn) [P-17] |
| 36.9% | 0.037 µM | N#Cc1cnc2c(cnn2-c2cc(NC3CCCC3)c(C(=O)N[C@H]3CC[C@H](CN4CCN(c5ccc6c(c5)C(=O)N(C5CCC(=O)NC5=O)C6=O)CC4)CC3)cn2)c1 (stereo partly drawn) [P-18] |
| 38.0% | 0.017 µM | CN(C(=O)C1CCN(c2ccc3c(c2)C(=O)N(C2CCC(=O)NC2=O)C3)CC1)C1CCC(n2cc(-c3cnc(-n4ncc5cc(C#N)cnc54)cc3NC3CCCC3)nn2)CC1 (stereo not drawn) [P-19] |
| 30.9% | 1.63 µM | N#Cc1cnc2c(cnn2-c2cc(NC3CCCC3)c(C(=O)NC3CCC(C(=O)Nc4ccc(C(=O)Nc5ccc(C6CCC(=O)NC6=O)cc5)cc4)CC3)cn2)c1 (stereo not drawn) [P-20] |
| 40.3% | 0.022 µM | C[C@@H]1CN(C(=O)C2CCC(NC(=O)c3cnc(-n4ncc5cc(C#N)cnc54)cc3NC3CCCC3)CC2)CCN1c1ccc2c(c1)C(=O)N(C1CCC(=O)NC1=O)C2=O (stereo partly drawn) [P-21] |
| 20.0% | 1.11 µM | N#Cc1cnc2c(cnn2-c2cc(NC3CC3)c(C(=O)NC3CCC(C(=O)N4CCN(c5ccc6c(c5)C(=O)N(C5CCC(=O)NC5=O)C6)CC4)CC3)cn2)c1 (stereo not drawn) [P-22] |
| 34.8% | 0.02 µM | N#Cc1cnc2c(cnn2-c2cc(NC3CCCC3)c(C(=O)NC3CCC(CC(=O)N4CCN(c5ccc(C6CCC(=O)NC6=O)cc5)CC4)CC3)cn2)c1 (stereo not drawn) [P-23] |
| 35.3% | 0.324 µM | N#Cc1cnc2c(cnn2-c2cc(NC3CCCC3)c(C(=O)N[C@H]3CC[C@H](CN4CCN(c5ccc6c(c5)C(=O)N(C5CCC(=O)NC5=O)C6)CC4)CC3)cn2)c1 (stereo partly drawn) [P-24] |
| 20.1% | 0.012 µM | CC1(Nc2cc(-n3ncc4cc(C#N)cnc43)ncc2C(=O)NC2CCC(C(=O)N3CCN(c4ccc5c(c4)C(=O)N(C4CCC(=O)NC4=O)C5)CC3)CC2)CC1 (stereo not drawn) [P-25] |
| 22.3% | 0.024 µM | CC(C)(C)Nc1cc(-n2ncc3cc(C#N)cnc32)ncc1C(=O)NC1CCC(C(=O)N2CCN(c3ccc4c(c3)C(=O)N(C3CCC(=O)NC3=O)C4)CC2)CC1 (stereo not drawn) [P-26] |
| 28.4% | 0.04 µM | CN(C1CCN(c2ccc3c(c2)C(=O)N(C2CCC(=O)NC2=O)C3)CC1)[C@H]1CC[C@H](n2cc(-c3cnc(-n4ncc5cc(C#N)cnc54)cc3NC3CCCC3)nn2)CC1 (stereo partly drawn) [P-27] |
| 36.6% | 0.145 µM | N#Cc1cnc2c(cnn2-c2cc(NC3CCCC3)c(C(=O)NC3CCC(C(=O)NC4CCN(c5ccc(C6CCC(=O)NC6=O)cc5)CC4)CC3)cn2)c1 (stereo not drawn) [P-28] |
| 14.1% | 0.098 µM | N#Cc1cnc2c(cnn2-c2cc(NC3CCCC3)c(C(=O)N[C@H]3CC[C@H](CNC4CCN(c5ccc(C6CCC(=O)NC6=O)cc5)CC4)CC3)cn2)c1 (stereo partly drawn) [P-29] |
| 44.1% | 3.32 µM | N#Cc1cnc2c(cnn2-c2cc(NC3CCCC3)c(C(=O)NC3CCC(O)(CN4CCN(c5ccc6c(c5)C(=O)N(C5CCC(=O)NC5=O)C6=O)CC4)CC3)cn2)c1 (stereo not drawn) [P-30, 6-(5-cyano-1H-pyrazolo[3,4-b]pyridin-1-yl)-4-(cyclopentylamino)-N-((1s,4s)-4-((4-(2-(2,6-dioxopiperidin-3-yl)-1,3-dioxoisoindolin-5-yl)piperazin-1-yl)methyl)-4-hydroxycyclohexyl)nicotinamide] |
| 18.2% | 0.06 µM | N#Cc1cnc2c(cnn2-c2cc(NC3CCCC3)c(C(=O)NC3CCC(CN4CCC(C(=O)Nc5ccc(C6CCC(=O)NC6=O)cc5)CC4)CC3)cn2)c1 (stereo not drawn) [P-31] |
| 21.0% | 0.547 µM | C[C@@H]1CN(c2ccc3c(c2)C(=O)N(C2CCC(=O)NC2=O)C3=O)C[C@H](C)N1CC1CCC(NC(=O)c2cnc(-n3ncc4cc(C#N)cnc43)cc2NC2CCCC2)CC1 (stereo partly drawn) [P-32] |
| 15.9% | 0.008 µM | N#Cc1cnc2c(cnn2-c2cc(NC3CCCC3)c(-n3cc(C4CCC(NC(=O)C5CCN(c6ccc7c(c6)C(=O)N(C6CCC(=O)NC6=O)C7)CC5)CC4)nn3)cn2)c1 (stereo not drawn) [P-33] |
| 12.9% | 0.597 µM | N#Cc1cnc2c(cnn2-c2cc(NC3CCCC3)c(-c3cn([C@H]4CC[C@H](CN5CCC(C(=O)Nc6ccc(N7CCC(=O)NC7=O)cc6)CC5)CC4)nn3)cn2)c1 [P-34] |
| 8.4% | 0.041 µM | N#Cc1cnc2c(cnn2-c2cc(NC3CCCC3)c(C(=O)NC3CCC(CCN4CCN(c5ccc(C6CCC(=O)NC6=O)cc5)CC4)CC3)cn2)c1 (stereo not drawn) [P-35] |
| 10.7% | 0.047 µM | CC([C@H]1CC[C@H](NC(=O)c2cnc(-n3ncc4cc(C#N)cnc43)cc2NC2CCCC2)CC1)N1CCN(c2ccc3c(c2)C(=O)N(C2CCC(=O)NC2=O)C3)CC1 (stereo partly drawn) [P-36] |
| 20.7% | 0.132 µM | C[C@H]1CN(c2ccc3c(c2)C(=O)N(C2CCC(=O)NC2=O)C3=O)C[C@H](C)N1CC1CCC(NC(=O)c2cnc(-n3ncc4cc(C#N)cnc43)cc2NC2CCCC2)CC1 (stereo partly drawn) [P-37] |
| 24.3% | 0.119 µM | CN(c1ccc2c(c1)C(=O)N(C1CCC(=O)NC1=O)C2=O)C1CCN(C[C@H]2CC[C@H](NC(=O)c3cnc(-n4ncc5cc(C#N)cnc54)cc3NC3CCCC3)CC2)CC1 (stereo partly drawn) [P-38] |
| 24.3% | 0.198 µM | N#Cc1cnc2c(cnn2-c2cc(NC3CCCC3)c(C(=O)NC3CCC(CN4CC5(CCN(c6ccc(C7CCC(=O)NC7=O)cc6)CC5)C4)CC3)cn2)c1 (stereo not drawn) [P-39] |
| 20.0% | 0.276 µM | N#Cc1cnc2c(cnn2-c2cc(NC3CCCC3)c(-c3cn([C@H]4CC[C@H](CN5CCN(CC(=O)Nc6ccc(C7CCC(=O)NC7=O)cc6)CC5)CC4)nn3)cn2)c1 (stereo partly drawn) [P-40, 2-(4-(((1r,4r)-4-(4-(6-(5-Cyano-1H-pyrazolo[3,4-b]pyridin-1-yl)-4-(cyclopentylamino)pyridin-3-yl)-1H-1,2,3-triazol-1-yl)cyclohexyl)methyl)piperazin-1-yl)-N-(4-(2,6-dioxopiperidin-3-yl)phenyl)acetamide] |
| 27.6% | 0.123 µM | N#Cc1cnc2c(ccn2-c2cc(NC3CC3)c(C(=O)NC3CCC(CN4CCC(CNc5ccc(C6CCC(=O)NC6=O)cc5)CC4)CC3)cn2)c1 (stereo not drawn) [P-42] |
| 14.7% | 0.312 µM | N#Cc1cnc2c(cnn2-c2cc(NC3CCCC3)c(C(=O)N[C@H]3CC[C@H](CN4CCC(CCc5ccc(C6CCC(=O)NC6=O)cc5)CC4)CC3)cn2)c1 (stereo partly drawn) [P-43] |
| 38.8% | 0.172 µM | N#Cc1cnc2c(cnn2-c2cc(NC3CCCC3)c(-c3cn([C@H]4CC[C@H](CN5CCC(CNc6ccc(C7CCC(=O)NC7=O)cc6)CC5)CC4)nn3)cn2)c1 (stereo partly drawn) [P-44] |
